Data on 1 compound can be found in article PMC8557901 (Microbiology Spectrum, 2021).

In data set [1] the test system is P. falciparum liver-stage parasites in human primary hepatocytes. Kind of data set: In vitro liver-stage development, P. falciparum in human primary hepatocytes. The data set is classed as cell-based, Plasmodium falciparum. An excerpt: Primary human hepatocytes were isolated from liver segments obtained from adult patients undergoing partial hepatectomy (Service de Chirurgie Digestive, Hépato-Bilio Pancréatique, Hôpital Pitié Salpêtrière, Paris, France). Primary simian hepatocytes were isolated from liver segments collected from healthy Macaca fascicularis monkeys from CEA, Fontenay aux Roses, France. All hepatocytes were obtained using collagenase perfusion as previously described ([40]). […] Primary murine hepatocytes were isolated from liver segments collected from BALB/c mice. Human and murine hepatocytes were used directly after their isolation. Cells were seeded in 96-well plates (Falcon; Becton Dickinson Labware Europe, France) coated with collagen I (BD Bioscience, USA) at a density of 80,000 cells per well. […] For human hepatocytes, the complete medium was supplemented with 2% dimethyl sulfoxide (DMSO; Sigma-Aldrich, USA) before infection to preserve their differentiation.
On the day of infection, 3 · 10^4 sporozoites of P. falciparum, P. yoelii, and P. cynomolgi were added to their respective host cell cultures (human, murine, and simian). The infected culture plates were centrifuged for 10 min at 900 × g, allowing fast parasite sedimentation, and further incubated with serial dilutions of M1. Culture medium containing the appropriate drug concentration was refreshed daily, and cells were fixed at 48 h postinfection (p.i.) for infections with P. yoelii, 6 days p.i. for P. falciparum, or 8 days p.i. for P. cynomolgi. For the in vitro sporozoite invasion experiments, P. falciparum sporozoites were preincubated with 1, 10, and 100 μM M1 for 1 h at room temperature before hepatocyte infections. Three hours later, after sporozoite penetration into hepatocytes, cultures were washed and then further incubated with or without the presence of the drug during 6 days. DMSO was used as a negative control.
The number, size, and shape of the parasites were determined using a CellInsight high-content screening platform equipped with Studio HCS software (ThermoFisher Scientific). […] Host cell and parasite nuclei were labeled with DAPI (4′,6-diamidino-2-phenylindole). […] The custom script used for counting and measuring parasites first required identification of the objects based on a fluorescence intensity threshold. The object identity was then further validated based on size and morphological (shape) criteria. The presence of DAPI-associated fluorescence in the selected objects allowed their final selection and the rejection of false positives. […] The parasitic size reduction was calculated on the average object area using the total surface area of each selected object (μm^2).

For data set [2], the system named is P. falciparum strain K1 in RBC. Kind of data set: In vitro chemosensitivity assay, blood stage P. falciparum K1 (SYBR green I). It counts as cell-based. Conditions: Plasmodium falciparum, K1; erythrocytic stage, 72 h; read-out: EC50 (μM) for P. falciparum strain K1 in RBC. The method, then:
Maintenance in continuous culture was done as described previously by Trager and Jensen ([46]). Cultures were maintained in fresh A+ human erythrocytes (EFS [French Blood Bank]) at 2.5% hematocrit in complete medium (RPMI 1640 with 25 mM HEPES, 25 mM NaHCO3, 10% A+ human serum) at 37°C under a reduced-O2 atmosphere (gas mixture of 10% O2, 5% CO2, and 85% N2). Parasitemia was maintained daily between 1% and 3%. The P. falciparum drug susceptibility test was carried out by comparing quantities of DNA in treated and control cultures of parasites in human erythrocytes according to a SYBR green I fluorescence-based method ([50]) using a 96-well fluorescence plate reader. Compounds, previously dissolved in DMSO (final concentration, less than 0.5% vol/vol), were incubated in a total assay volume of 200 μl of synchronized culture suspension (2% hematocrit and 0.4% parasitemia) for 72 h in a humidified atmosphere (85% N2, 10% O2, and 5% CO2) at 37°C in 96-well flat-bottom plates. Duplicate assays were performed for each sample. After incubation, plates were frozen at −20°C for 24 h. Then, the frozen plates were thawed for 1 h at 37°C. Fifteen microliters of each sample was transferred to 96-well flat-bottom black plates (Greiner Bio-one) already containing 15 μl of the SYBR green I lysis buffer (2× SYBR green I, 20 mM Tris base, pH 7.5, 20 mM EDTA, 0.008% [wt/vol] saponin, 0.08% [wt/vol] Triton X-100). […] Plates were incubated for 15 min at 37°C and then read on a Tecan Infinite F-200 spectrophotometer with excitation and emission wavelengths at 485 and 535 nm, respectively. […] EC50K1 values represent the mean values calculated from three independent experiments.

Data set [3] is described as follows: MTT cell viability assay, simian primary hepatocytes. It counts as cell-based. The following applies: Macaca fascicularis (cynomolgus monkey), primary hepatocytes (cryopreserved). The source says: Primary human hepatocytes were isolated from liver segments obtained from adult patients undergoing partial hepatectomy (Service de Chirurgie Digestive, Hépato-Bilio Pancréatique, Hôpital Pitié Salpêtrière, Paris, France). Primary simian hepatocytes were isolated from liver segments collected from healthy Macaca fascicularis monkeys from CEA, Fontenay aux Roses, France. All hepatocytes were obtained using collagenase perfusion as previously described ([40]). Simian hepatocytes were immediately cryopreserved with a Nicool-Freezal controlled rate freezer (Air Liquide Santé, Marne la Vallée, France) and then used when needed after fast thawing at 37°C. Primary murine hepatocytes were isolated from liver segments collected from BALB/c mice. Human and murine hepatocytes were used directly after their isolation. Cells were seeded in 96-well plates (Falcon; Becton Dickinson Labware Europe, France) coated with collagen I (BD Bioscience, USA) at a density of 80,000 cells per well. […]
The toxicity of M1 toward primary hepatocytes and HepG2-CD81 cells was evaluated through the MTT {[3-(4,5-dimethyl-2-thiazolyl)-2,5-diphenyl-2H-tetrazolium bromide]} test ([42]). […] Then, MTT was replaced by a mixture of DMSO-ethanol (1:1) to dissolve formazan crystals and the absorbance was read at 540 nm on a FlexStation plate reader.

Molecules are shown by their SMILES.

As to `Cc1ccc(-c2cc3nc(NC(C)(C)C)[nH]c(=O)c3s2)cc1` [Metabolite M1, 2-(tert-Butylamino)-6-(p-tolyl)thieno[3,2-d]pyrimidin-4(3H)-one], the “concentration from which liver-stage development was fully inhibited” value in data set [1] (P. falciparum in human hepatocytes) was determined as 14 µM. For the same compound, the EC50 was determined as 0.45 ± 0.15 µM in data set [1] (Plasmodium falciparum, Hepatocyte, P. falciparum in human primary hepatocytes (HH), mean ± SEM of triplicate experiments, read-out: EC50 against liver-stage parasites) and 0.045 µM in data set [2]. The “SI (selectivity index)” value in data set [1] (hepatocyte CC50/EC50, P. falciparum (HH)) is above 133. The “Size reduction at 10 μM (%)” value in data set [1] (parasite (schizont) size, 10 μM, P. falciparum (HH)) came out at 80%. The CC50 at 8 days in data set [3] was above 60 µM.

For orientation: EC50 means the midpoint of the concentration-response curve. The term CC50 denotes the concentration giving 50% cytotoxicity.
